Source: US10405547B2, “Substituted cyclic amides as herbicides” (FMC Corporation, priority 2015, dated 2019)

Legend:
Assay type in all cases: in vivo
Details in all cases: 0 to 100 scale (0 no effect, 100 complete control)
[1] = tested on: wheat (Triticum aestivum); assay: Test A postemergence, wheat
From the text: (§1) Test A Seeds of plant species selected from barnyardgrass (Echinochloa crus-galli), kochia (Kochia scoparia), ragweed (common ragweed, Ambrosia elatior), ryegrass, Italian (Lolium multiflorum), foxtail, giant (Setaria faberii), and pigweed (Amaranthus retroflexus), were planted into a blend of loam soil and sand and treated preemergence with a directed soil spray using test chemicals formulated in a non-phytotoxic solvent mixture which included a surfactant.
(§2) At the same time, plants selected from these weed species and also blackgrass (Alopecurus myosuroides), galium (catchweed bedstraw, Galium aparine), wheat (Triticum aestivum), and corn (Zea mays) were planted in pots containing the same blend of loam soil and sand and treated with postemergence applications of test chemicals formulated in the same manner. Plants ranged in height from 2 to 10 cm and were in the one- to two-leaf stage for the postemergence treatment. Treated plants and untreated controls were maintained in a greenhouse for approximately 10 days, after which time all treated plants were compared to untreated controls and visually evaluated for injury. Plant response ratings, summarized in Table A, are based on a 0 to 100 scale where 0 is no effect and 100 is complete control. A dash (-) response means no test result.

[2] = tested on: barnyardgrass (Echinochloa crus-galli); assay: Test A preemergence, barnyardgrass
From the text: as §1, §2

[3] = tested on: blackgrass (Alopecurus myosuroides); assay: Test A postemergence, blackgrass
From the text: as §1, §2

[4] = tested on: foxtail, giant (Setaria faberii); assay: Test A preemergence, giant foxtail
From the text: as §1, §2

[5] = tested on: pigweed (Amaranthus retroflexus); assay: Test A postemergence, pigweed
From the text: as §1, §2

[6] = tested on: pigweed (Amaranthus retroflexus); assay: Test A preemergence, pigweed
From the text: as §1, §2

[7] = tested on: kochia (Kochia scoparia); assay: Test A postemergence, kochia
From the text: as §1, §2

[8] = tested on: galium (catchweed bedstraw, Galium aparine); assay: Test A postemergence, galium
From the text: as §1, §2

[9] = tested on: ryegrass, Italian (Lolium multiflorum); assay: Test A postemergence, Italian ryegrass
From the text: as §1, §2

[10] = tested on: ragweed (common ragweed, Ambrosia elatior); assay: Test A postemergence, ragweed
From the text: as §1, §2

[11] = tested on: ryegrass, Italian (Lolium multiflorum); assay: Test A preemergence, Italian ryegrass
From the text: as §1, §2

[12] = tested on: barnyardgrass (Echinochloa crus-galli); assay: Test A postemergence, barnyardgrass
From the text: as §1, §2

[13] = tested on: corn (Zea mays); assay: Test A postemergence, corn
From the text: as §1, §2

[14] = tested on: foxtail, giant (Setaria faberii); assay: Test A postemergence, giant foxtail
From the text: as §1, §2

[15] = tested on: ragweed (common ragweed, Ambrosia elatior); assay: Test A preemergence, ragweed
From the text: as §1, §2

[16] = tested on: kochia (Kochia scoparia); assay: Test A preemergence, kochia
From the text: as §1, §2

[17] = 125 g ai/ha, visual injury, approximately 10 days
[18] = 500 g ai/ha, visual injury, approximately 10 days

| Compound | Plant response rating, Wheat [1, 17] | Plant response rating, Wheat [1, 18] | Plant response rating, Barnyardgrass ([2]; 125 g ai/ha) | Plant response rating, Barnyardgrass ([2]; 500 g ai/ha) | Plant response rating, Blackgrass [3, 17] | Plant response rating, Blackgrass [3, 18] | Plant response rating, Foxtail, Giant ([4]; 125 g ai/ha) | Plant response rating, Foxtail, Giant ([4]; 500 g ai/ha) | Plant response rating, Pigweed [5, 17] | Plant response rating, Pigweed ([6]; 125 g ai/ha) | Plant response rating, Kochia [7, 17] | Plant response rating, Galium [8, 17] | Plant response rating, Ryegrass, Italian [9, 17] | Plant response rating, Ragweed [10, 17] | Plant response rating, Ryegrass, Italian ([11]; 125 g ai/ha) | Plant response rating, Barnyardgrass [12, 17] | Plant response rating, Corn [13, 17] | Plant response rating, Foxtail, Giant [14, 17] | Plant response rating, Ragweed ([15]; 125 g ai/ha) | Plant response rating, Kochia ([16]; 125 g ai/ha) | also measured |
| --- | --- | --- | --- | --- | --- | --- | --- | --- | --- | --- | --- | --- | --- | --- | --- | --- | --- | --- | --- | --- | --- |
| O=C1NCC(c2cccc(OCC3CC3)c2)C1C(=O)Nc1ccc(F)cc1F (stereo not drawn) [Compound 3] | 0 | 20 | 40 | 70 | 0 | 30 | 60 | 80 | 0 | 0 | 0 | 20 | 0 | 0 | 0 | 10 | 0 | 20 | 0 | 0 | Plant response rating, Pigweed [5, 18]: 0; Plant response rating, Pigweed ([6]; 500 g ai/ha): 0; Plant response rating, Kochia [7, 18]: 40; Plant response rating, Galium [8, 18]: 40; Plant response rating, Ryegrass, Italian [9, 18]: 30; Plant response rating, Ragweed [10, 18]: 0; Plant response rating, Ryegrass, Italian ([11]; 500 g ai/ha): 20; Plant response rating, Barnyardgrass [12, 18]: 60; Plant response rating, Corn [13, 18]: 20; Plant response rating, Foxtail, Giant [14, 18]: 70; Plant response rating, Ragweed ([15]; 500 g ai/ha): 0; Plant response rating, Kochia ([16]; 500 g ai/ha): 20 |
| CC1(COc2cccc(C3CNC(=O)C3C(=O)Nc3cccc(F)c3F)c2)COC1 (stereo not drawn) [Compound 13] | 0 | 0 | 0 | 80 | 0 | 20 | 80 | 90 | 0 | 0 | 0 | 0 | 0 | 0 | 0 | 0 | 0 | 40 | 0 | 0 | Plant response rating, Pigweed [5, 18]: 0; Plant response rating, Pigweed ([6]; 500 g ai/ha): 0; Plant response rating, Kochia [7, 18]: 20; Plant response rating, Galium [8, 18]: 40; Plant response rating, Ryegrass, Italian [9, 18]: 30; Plant response rating, Ragweed [10, 18]: 0; Plant response rating, Ryegrass, Italian ([11]; 500 g ai/ha): 0; Plant response rating, Barnyardgrass [12, 18]: 60; Plant response rating, Corn [13, 18]: 0; Plant response rating, Foxtail, Giant [14, 18]: 70; Plant response rating, Ragweed ([15]; 500 g ai/ha): 0; Plant response rating, Kochia ([16]; 500 g ai/ha): 0 |
| O=C1NCC(c2cccc(Oc3ncc(F)cc3F)c2)C1C(=O)Nc1cccc(F)c1F (single isomer, unassigned) [Compound 71] | 0 |  | 70 |  | 0 |  | 90 |  | 50 | 80 | 20 | 50 | 0 | 30 | 0 | 70 | 20 | 70 | 0 | 30 | Plant response rating, Wheat ([1]; 31 g ai/ha): 0; Plant response rating, Barnyardgrass ([2]; 31 g ai/ha): 0; Plant response rating, Blackgrass ([3]; 31 g ai/ha): 0; Plant response rating, Foxtail, Giant ([4]; 31 g ai/ha): 70; Plant response rating, Pigweed ([5]; 31 g ai/ha): 0; Plant response rating, Pigweed ([6]; 31 g ai/ha): 20; Plant response rating, Kochia ([7]; 31 g ai/ha): 0; Plant response rating, Galium ([8]; 31 g ai/ha): 30; Plant response rating, Ryegrass, Italian ([9]; 31 g ai/ha): 0; Plant response rating, Ragweed ([10]; 31 g ai/ha): 0; Plant response rating, Ryegrass, Italian ([11]; 31 g ai/ha): 0; Plant response rating, Barnyardgrass ([12]; 31 g ai/ha): 30; Plant response rating, Corn ([13]; 31 g ai/ha): 0; Plant response rating, Foxtail, Giant ([14]; 31 g ai/ha): 20; Plant response rating, Ragweed ([15]; 31 g ai/ha): 0; Plant response rating, Kochia ([16]; 31 g ai/ha): 0 |
| O=C1NCC(c2cccc(Cn3cccn3)c2)C1C(=O)Nc1ccc(F)cc1F (stereo not drawn) [Compound 28] | 0 | 0 | 0 | 30 | 0 | 0 | 0 | 30 | 0 | 0 | 0 | 0 | 0 | 0 | 0 | 0 | 0 | 0 | 0 | 0 | Plant response rating, Pigweed [5, 18]: 0; Plant response rating, Pigweed ([6]; 500 g ai/ha): 0; Plant response rating, Kochia [7, 18]: 0; Plant response rating, Galium [8, 18]: 0; Plant response rating, Ryegrass, Italian [9, 18]: 0; Plant response rating, Ragweed [10, 18]: 0; Plant response rating, Ryegrass, Italian ([11]; 500 g ai/ha): 0; Plant response rating, Barnyardgrass [12, 18]: 20; Plant response rating, Corn [13, 18]: 0; Plant response rating, Foxtail, Giant [14, 18]: 20; Plant response rating, Ragweed ([15]; 500 g ai/ha): 0; Plant response rating, Kochia ([16]; 500 g ai/ha): 0 |
| O=C1NCC(c2cccc(Cn3cccn3)c2)C1C(=O)Nc1ccccc1F (stereo not drawn) [Compound 27] | 0 | 0 | 0 | 20 | 0 | 0 | 20 | 30 | 0 | 0 | 0 | 0 | 0 | 0 | 0 | 40 | 0 | 40 | 0 | 0 | Plant response rating, Pigweed [5, 18]: 0; Plant response rating, Pigweed ([6]; 500 g ai/ha): 0; Plant response rating, Kochia [7, 18]: 0; Plant response rating, Galium [8, 18]: 0; Plant response rating, Ryegrass, Italian [9, 18]: 0; Plant response rating, Ragweed [10, 18]: 0; Plant response rating, Ryegrass, Italian ([11]; 500 g ai/ha): 0; Plant response rating, Barnyardgrass [12, 18]: 70; Plant response rating, Corn [13, 18]: 0; Plant response rating, Foxtail, Giant [14, 18]: 50; Plant response rating, Ragweed ([15]; 500 g ai/ha): 0; Plant response rating, Kochia ([16]; 500 g ai/ha): 0 |
| O=C1NCC(c2cccc(Cn3cncn3)c2)C1C(=O)Nc1cccc(F)c1F (stereo not drawn) [Compound 32] | 0 | 0 | 0 | 0 | 0 | 0 | 0 | 40 | 0 | 0 | 0 | 0 | 0 | 0 | 0 | 0 | 0 | 0 | 0 | 0 | Plant response rating, Pigweed [5, 18]: 0; Plant response rating, Pigweed ([6]; 500 g ai/ha): 0; Plant response rating, Kochia [7, 18]: 0; Plant response rating, Galium [8, 18]: 40; Plant response rating, Ryegrass, Italian [9, 18]: 0; Plant response rating, Ragweed [10, 18]: 0; Plant response rating, Ryegrass, Italian ([11]; 500 g ai/ha): 0; Plant response rating, Barnyardgrass [12, 18]: 10; Plant response rating, Corn [13, 18]: 0; Plant response rating, Foxtail, Giant [14, 18]: 20; Plant response rating, Ragweed ([15]; 500 g ai/ha): 0; Plant response rating, Kochia ([16]; 500 g ai/ha): 0 |
